Legend:
[1] = test system: RARα; assay: transactivation assay, agonist activity; type: cell-based; conditions: RARα versus RARβ, RARγ; FIG. 1
Description: Transactivation assays employ expression plasmids encoding the full length receptors RARα, RARβ, and RAR ? . Reporter plasmids containing the herpes virus thymidine kinase promoter and the appropriate retinoic acid receptor response element (RAREs) are positioned upstream of an open coding region encoding firefly luciferase.

[2] = test system: Naive CD4+ CD25− FoxP3− cells; assay: Treg cell differentiation from naive T cells in vitro (FoxP3-GFP, flow cytometry); type: cell-based, mouse; conditions: 10 nM
Method: To determine whether a RARα agonist could affect T cell differentiation, T cells were incubated with a RARα agonist to determine its effect on Foxp3 expression. Naive CD4^+ CD25^− FoxP3^− cells were purified from a Foxp3-GFP mouse using flow cytometry by sorting and isolating based upon a GFP^− phenotype. These cells were activated polyclonally with αCD3 in vitro in the presence of IL-2 and TGF-β. These cells were then cultured in media with various concentrations of compound IRX5183 (a RARα agonist) and the expression of FoxP3-GFP was analyzed by flow cytometry. The RARα agonist compound IRX5183 enhanced differentiation of immunosuppressive Treg cells and inhibited differentiation of inflammatory TH17 cells from naïve T cells in vitro (Table 2).

[3] = test system: MM cells; assay: surface CD138 expression of MM cells (flow cytometry); type: cell-based, human; conditions: BM stromal cell co-cultures, 1 μM
Method: (§1) 24-well plates were coated with 0.1% gelatin in PBS for 30 min at 37° C. The gelatin solution was removed, and the stromal cells were cultured overnight at a density of 5×10^4 cells/well to obtain a confluent monolayer. At that time, MM cell lines or primary MM cells (1×10^5 in 2 ml) were added to the stroma cultures. The stroma cocultures were incubated at 37° C. in RPMI containing 10% FCS, L-glutamine, and P/S, with or without AGN194310 (1 μM for 5 days), R115866 (1 μM for 5 days), IRX5183 (1 μM for 5 days), or BTZ (2.5 nM for 48 hr).
Following treatment, MM cells were collected, washed with PBS, and stained for 15 min at room temperature with phycoerythrin-conjugated (PE-conjugated) anti-CD138. Cells were washed to remove unbound antibody and evaluated in a FACSCalibur system (BD Biosciences). Stromal cells were identified by GFP expression, and viable cells were identified using 7-aminoactinomycin D (7-AAD). To calculate cell numbers, live GFP-cells were normalized to calibration beads.
Expression of CD138 is a hallmark of normal PC differentiation as well MM PCs.

[4] = test system: MM cell lines and MM CD138+ primary cells; assay: BTZ sensitivity of MM cells, clonogenic or cellular recovery, liquid or BM stroma; type: cell-based, human; conditions: BM stroma with 1 μM test agent for 5 days, then BTZ 2.5 nM for 48 hr
Method: as §1
MM cells were separated from BM stromal cells by gently pipetting several times around the well. Detached cells were centrifuged, resuspended in fresh media, and incubated in a 24-well plate for 1 hr at 37° C. During this short incubation period, contaminating stromal cells attached to the well, while MM cells remained in suspension. MM cells were then recovered by gently pipetting. This protocol was used for qRT-PCR and CFU coculture experiments. The purity achieved using this protocol was confirmed by flow cytometry to be 98%-99% MM cells and less than 2% contaminating stroma.
After treatment, MM cells were collected, washed with PBS, and plated at a density of 5,000 cells/ml in 1 ml of 1.32% methylcellulose supplemented with 30% FBS, 10% BSA, L-glutamine, P/S, and 0.1 mM β-ME. Cells were plated in triplicate in 35-mm culture dishes, incubated at 37° C., and scored for the presence of colonies 14 days later.
To determine whether decreased retinoid signaling contributes to BTZ resistance within the BM niche, MM cell lines and MM CD138+ primary cells were incubated with BM stroma for 5 days, followed by BTZ treatment.
Strategies to overcome microenvironment-dependent chemoprotection have focused on mobilization of cancer cells from the BM niche into the peripheral circulation. It was analyzed whether the change in phenotype and subsequent BTZ resistance of MM cells were lost upon separation from the BM stroma, a process that mimics mobilization. To this end, H929 cells were separated from BM mesenchymal cells following a 5-day stroma co-culture, incubated in fresh media (RPMI with 10% FBS) for 0 to 48 hr, and then treated with BTZ. […] Thus, microenvironment-dependent BTZ resistance induced by the change in MM cell phenotype may not immediately be reversed by tumor mobilization.

[5] = test system: H929 luciferase+ (Luc+) cells; assay: systemic MM xenograft, bioluminescence; type: in vivo, NSG mice; conditions: 4 weeks
Method: For the systemic MM model, 2×10^6 Luc+/GFP+ H929 cells were injected via the tail vein into 16-week-old male NSG mice. After engraftment, as determined by an exponential increase in bioluminescence, mice were treated with BTZ (0.5 mg/kg i.p.) twice weekly and with IRX (10 mg/kg) once daily. Tumor burden was assessed by bioluminescence, as above.
To test whether retinoids can enhance BTZ activity in MM, a systemic MM xenograft was developed by injecting 2×10^6 H929 luciferase+ (Luc+) cells via the tail vein of non-obese, diabetic, severe combined immunodeficiency IL-2 receptor γ-KO (NSG) mice. The animals were randomized to receive IRX, BTZ, or a combination of both, and disease burden was followed weekly by bioluminescence imaging (FIG. 6).

[6] = test system: NB4 cells; assay: CFU experiments off and on stroma, NB4 cells; type: cell-based; conditions: 10^−7 M ATRA, IRX5183, or 10^−8 M AM80
Description: (§2) Data across three independent experiments.

[7] = test system: OCI-AML3 cells; assay: CFU experiments off and on stroma, OCI-AML3 cells; type: cell-based; conditions: 10^−6 M ATRA, IRX5183, or 10^−7 M AM80
Description: as §2

[8] = test system: Kasumi-1 cells; assay: CFU experiments off and on stroma, Kasumi-1 cells; type: cell-based; conditions: 10^−6 M ATRA, IRX5183, or 10^−7 M AM80
Description: as §2

## CC1(C)CCC(C)(C)c2c1cc(C(=O)Nc1cc(F)c(C(=O)O)c(F)c1)c(O)c2Cl [IRX5183]
[1]
  agonist activity, activation of transcription: specifically activates RARα
[2]
  Treg cell Percent Differentiation (%): 90%
[3]
  surface CD138 expression: restored CD138 expression
[4]
  stroma-induced BTZ resistance: overcome
[5]; IRX in combination with BTZ
  disease burden (bioluminescence): significant (P<0.01) decrease in disease burden
[5]; monotherapy, BTZ 0.5 mg/kg i.p. twice weekly, IRX 10 mg/kg once daily
  tumor burden (bioluminescence): decrease in tumor burden compared with untreated mice
[6]
  clonogenic growth (CFU): decrease in clonogenic growth compared to control
[7]
  clonogenic growth (CFU): decrease in clonogenic growth compared to control
[8]
  clonogenic growth (CFU): decrease in clonogenic growth compared to control

Reference: patent US10471030B2, “Immunomodulatory and differentiating function selective retinoid and rexinoid compounds in combination with immune modulators for cancer immunotherapy” (Io Therapeutics, Inc., priority 2017, dated 2019)
